Data: patent US11827724B2, “Polytetrafluoroethylene and method for producing same” (DAIKIN INDUSTRIES, LTD., priority 2009, dated 2023)
Read-outs that look alike come from different tables or passages of the source.

Tests used:
[1] = Log POW, distribution coefficient between 1-octanol and water; conditions: fluorinated surfactants used in Examples; octanol/water (1:1)
Source text: The Log POW is distribution coefficient between 1-octanol and water. The Log POW is represented by Log P, wherein P is the ratio of a concentration of a fluorinated surfactant in an octanol phase to a concentration of a fluorinated surfactant in a water phase when an octanol/water (1:1) mixture containing a fluorinated surfactant is phase-separated.

[2] = PFOA, stated in description as comparison; cited from earlier work

N.O=C(O)C(F)(OC(F)(F)C(F)(OC(F)(F)F)C(F)(F)F)C(F)(F)F (centres unmarked) [CF3—O—CF(CF3)CF2O—CF(CF3) COONH4]
Log POW [1]: 3.4

N.O=C(O)C(F)(F)C(F)(F)C(F)(F)C(F)(F)C(F)(F)C(F)(F)C(F)(F)F [PFOA, perfluoro octanoic acid ammonium]
Log POW [2]: 3.5
